Measured values taken from the NIST ThermoML archive (doi:10.1016/j.jct.2007.06.002).
Where “and” joins values, the source holds several entries; their conditions need not be identical. Equal entries are not always repeated. Numbers after ± are expanded uncertainties.

Experiments:
[1] = 101 kPa, Liquid
[2] = refractive index (Na D-line) (dimensionless); details: 298.15 K; 101.33 kPa; Liquid
[3] = xn = mol fraction of the nth substance listed; details: 101 kPa, Liquid
[4] = refractive index (Na D-line) (dimensionless); xn = mol fraction of the nth substance listed; details: 298.15 K, 101 kPa, Liquid

COCCOC [1,2-dimethoxyethane]
[1]
Details | mass density [kg/m3]
298.15 K | 864.47 ± 1.5
308.15 K | 853.47 ± 1.6
318.15 K | 842.27 ± 1.6

Details | refractive index
[2] | 1.379 ± 0.0013

COCCOC [1,2-dimethoxyethane] + CCCCn1cc[n+](C)c1.F[P-](F)(F)(F)(F)F
mass density [kg/m3], [3]
Details | x2 = 0 | x2 = 0.0125 | x2 = 0.0416 | x2 = 0.1055 | x2 = 0.1219 | x2 = 0.2474 | x2 = 0.3744 | x2 = 0.4937 | x2 = 0.7092 | x2 = 0.9329
298.15 K | 864.47 ± 1.5 | 879.28 ± 1.4 | 912.09 ± 1.2 | 976.53 ± 0.91 | 991.51 ± 0.85 | 1089.14 ± 1.4 | 1164.22 ± 2 | 1219.89 ± 2.5 | 1296.36 ± 3.3 | 1353.78 ± 4.1
308.15 K | 853.47 ± 1.6 | 868.36 ± 1.5 | 901.37 ± 1.3 | 966.23 ± 0.96 | 981.31 ± 0.89 | 1079.57 ± 1.4 | 1155.09 ± 2 | 1211.03 ± 2.5 | 1287.72 ± 3.3 | 1345.27 ± 4
318.15 K | 842.27 ± 1.6 | 857.25 ± 1.6 | 890.47 ± 1.4 | 955.79 ± 1 | 971 ± 0.94 | 1069.97 ± 1.3 | 1145.98 ± 1.9 | 1202.22 ± 2.4 | 1279.25 ± 3.2 | 1336.85 ± 4

[4]
Details | refractive index
x2 = 0 | 1.379 ± 0.0013
x2 = 0.0041 | 1.3781 ± 0.0013
x2 = 0.0125 | 1.3798 ± 0.0013
x2 = 0.0416 | 1.3859 ± 0.0013
x2 = 0.1055 | 1.3926 ± 0.0013
x2 = 0.1219 | 1.3941 ± 0.0013
x2 = 0.2474 | 1.4009 ± 0.0013
x2 = 0.3744 | 1.4043 ± 0.0013
x2 = 0.4937 | 1.4062 ± 0.0013
x2 = 0.7092 | 1.4076 ± 0.0013
x2 = 0.9329 | 1.4087 ± 0.0013

CCCCn1cc[n+](C)c1.F[P-](F)(F)(F)(F)F [1-butyl-3-methylimidazolium hexafluorophosphate]
[1]
Details | mass density [kg/m3]
298.15 K | 1367.88 ± 24
308.15 K | 1359.33 ± 23
318.15 K | 1350.87 ± 23

Details | refractive index
[2] | 1.4089 ± 0.0013 and 1.4058 ± 0.0025

CCCCn1cc[n+](C)c1.F[P-](F)(F)(F)(F)F [1-butyl-3-methylimidazolium hexafluorophosphate] + COCCO
mass density [kg/m3], [3]
Details | 298.15 K | 308.15 K | 318.15 K
x1 = 0.0037 | 964.55 ± 5.8 | 962.53 ± 5.9 | 945.96 ± 6.7
x1 = 0.0078 | 969.43 ± 5.5 | 967.34 ± 5.7 | 950.88 ± 6.5
x1 = 0.012 | 974.36 ± 5.3 | 972.19 ± 5.4 | 955.82 ± 6.2
x1 = 0.0354 | 1000.13 ± 4 | 997.66 ± 4.2 | 981.7 ± 4.9
x1 = 0.0801 | 1042.78 ± 6.2 | 1039.97 ± 6 | 1024.48 ± 5.3
x1 = 0.1468 | 1094.24 ± 8.8 | 1091.12 ± 8.7 | 1076.09 ± 7.9
x1 = 0.2542 | 1157.35 ± 12 | 1153.41 ± 12 | 1139.53 ± 11
x1 = 0.396 | 1219.08 ± 15 | 1213.6 ± 15 | 1201.72 ± 14
x1 = 0.6104 | 1284.64 ± 19 | 1277.88 ± 19 | 1267.48 ± 18
x1 = 0.8127 | 1328.13 ± 21 | 1320.65 ± 21 | 1311.1 ± 21
x1 = 0.8961 | 1344.77 ± 22 | 1336.68 ± 22 | 1327.9 ± 22
x1 = 0.9345 | 1352.85 ± 23 | 1344.49 ± 23 | 1336 ± 22
x1 = 0.9749 | 1361.9 ± 24 | 1353.35 ± 23 | 1344.99 ± 23
x1 = 1 | 1367.88 ± 24 | 1359.33 ± 23 | 1350.87 ± 23

[4]
Details | refractive index
x1 = 0.0037 | 1.4006 ± 0.0013
x1 = 0.0078 | 1.401 ± 0.0013
x1 = 0.012 | 1.4013 ± 0.0013
x1 = 0.0354 | 1.403 ± 0.0013
x1 = 0.0801 | 1.405 ± 0.0013
x1 = 0.1468 | 1.4065 ± 0.0013
x1 = 0.2542 | 1.4078 ± 0.0013
x1 = 0.396 | 1.4083 ± 0.0013
x1 = 0.6104 | 1.4086 ± 0.0013
x1 = 0.8127 | 1.4086 ± 0.0013
x1 = 0.8961 | 1.4089 ± 0.0013
x1 = 0.9345 | 1.409 ± 0.0013
x1 = 0.9749 | 1.409 ± 0.0013
x1 = 1 | 1.4089 ± 0.0013

CCCCn1cc[n+](C)c1.F[P-](F)(F)(F)(F)F [1-butyl-3-methylimidazolium hexafluorophosphate] + COCCOC
[3], x1 = 1
Details | mass density [kg/m3]
298.15 K | 1367.88 ± 4.3
308.15 K | 1359.33 ± 4.2
318.15 K | 1350.87 ± 4.2

Details | refractive index
[4], x1 = 1 | 1.4089 ± 0.0013

CCCCn1cc[n+](C)c1.F[P-](F)(F)(F)(F)F [1-butyl-3-methylimidazolium hexafluorophosphate] + COCCOCCOC
[3], x1 = 1
Details | mass density [kg/m3]
298.15 K | 1367.88 ± 4.3
308.15 K | 1359.33 ± 4.2
318.15 K | 1350.87 ± 4.2

Details | refractive index
[4], x1 = 1 | 1.4058 ± 0.0025

COCCOCCOC [2,5,8-trioxanonane]
[1]
Details | mass density [kg/m3]
298.15 K | 939.1 ± 1.1
308.15 K | 929.6 ± 1.1
318.15 K | 919.3 ± 1.2

Details | refractive index
[2] | 1.4058 ± 0.0025

COCCOCCOC [2,5,8-trioxanonane] + CCCCn1cc[n+](C)c1.F[P-](F)(F)(F)(F)F
mass density [kg/m3], [3]
Details | 298.15 K | 308.15 K | 318.15 K
x2 = 0 | 939.1 ± 1.1 | 929.6 ± 1.1 | 919.3 ± 1.2
x2 = 0.0039 | 942.16 ± 1.1 | 932.57 ± 1.1 | 922.34 ± 1.2
x2 = 0.0076 | 945.03 ± 1 | 935.37 ± 1.1 | 925.2 ± 1.1
x2 = 0.0127 | 948.97 ± 1 | 939.22 ± 1.1 | 929.13 ± 1.1
x2 = 0.0304 | 962.27 ± 0.94 | 952.3 ± 1 | 942.43 ± 1.1
x2 = 0.0505 | 976.74 ± 0.88 | 966.73 ± 0.93 | 957.03 ± 0.97
x2 = 0.1003 | 1010.23 ± 0.85 | 1000.46 ± 0.79 | 990.93 ± 0.83
x2 = 0.1617 | 1047.81 ± 1.1 | 1038.53 ± 1 | 1028.98 ± 0.98
x2 = 0.207 | 1073.6 ± 1.3 | 1064.59 ± 1.2 | 1055.02 ± 1.2
x2 = 0.3024 | 1124.55 ± 1.7 | 1115.44 ± 1.6 | 1106.04 ± 1.6
x2 = 0.4018 | 1173.96 ± 2.1 | 1164.58 ± 2.1 | 1155.65 ± 2
x2 = 0.5023 | 1219.47 ± 2.5 | 1210.5 ± 2.5 | 1202.05 ± 2.4
x2 = 0.5623 | 1243.6 ± 2.8 | 1235.27 ± 2.7 | 1226.97 ± 2.6
x2 = 0.7197 | 1292.24 ± 3.3 | 1286.05 ± 3.3 | 1277.69 ± 3.2
x2 = 0.9477 | 1345.16 ± 4 | 1336.93 ± 4 | 1328.47 ± 3.9
x2 = 0.9842 | 1359.24 ± 4.2 | 1351.31 ± 4.1 | 1342.85 ± 4.1
x2 = 0.9952 | 1365.36 ± 4.3 | 1356.87 ± 4.2 | 1348.47 ± 4.1

[4]
Details | refractive index
x2 = 0 | 1.4058 ± 0.0025
x2 = 0.0039 | 1.4063 ± 0.0025
x2 = 0.0076 | 1.4065 ± 0.0025
x2 = 0.0127 | 1.407 ± 0.003
x2 = 0.0304 | 1.4081 ± 0.0025
x2 = 0.0505 | 1.4092 ± 0.0025
x2 = 0.1003 | 1.4113 ± 0.0025
x2 = 0.1617 | 1.4141 ± 0.0025
x2 = 0.207 | 1.4149 ± 0.0025
x2 = 0.3024 | 1.4148 ± 0.0025
x2 = 0.4018 | 1.4142 ± 0.0025
x2 = 0.5023 | 1.4138 ± 0.0025
x2 = 0.5623 | 1.4123 ± 0.0025
x2 = 0.7197 | 1.4098 ± 0.0025
x2 = 0.9477 | 1.4094 ± 0.0025
x2 = 0.9842 | 1.4089 ± 0.0025

COCCO [2-methoxyethan-1-ol]
[1]
Details | mass density [kg/m3]
298.15 K | 960.05 ± 6
308.15 K | 950.81 ± 6.5
318.15 K | 941.45 ± 6.9

Details | refractive index
[2] | 1.4004 ± 0.0013

COCCO [2-methoxyethan-1-ol] + CCCCn1cc[n+](C)c1.F[P-](F)(F)(F)(F)F
[3], x2 = 0
Details | mass density [kg/m3]
298.15 K | 960.05 ± 6
308.15 K | 950.81 ± 6.5
318.15 K | 941.45 ± 6.9

Details | refractive index
[4], x2 = 0 | 1.4004 ± 0.0013
